{
  "source": "patent EP0923292B1",
  "about": "“IMPROVED METHOD FOR SYSTEMIC ADMINISTRATION OF 2,4-DIENOIC ACID-TYPE INSECTICIDES TO TERRESTRIAL MAMMALS” (priority 1996, dated 1998)",
  "experiment": "Concentration of (S)-methoprene on dog hair following oral administration (HPLC)",
  "type": "in vivo, dogs",
  "settings": "oral 50 mg/kg one time on Day 0; for concentration at 17 day / concentration at 21 day / concentration at 1 day / concentration at 3 day / concentration at 5 day / concentration at 7 day / concentration at 10 day / concentration at 14 day / concentration at 28 day: dog, hair, po, 50 mg/kg; for concentration at 1 day: day 1",
  "text": "Twelve random-bred adult dogs of various sex and medium hair coat were selected based on hair coat, health, and individual habits. The twelve dogs were grouped into two groups of six dogs each. Dog weights ranged from 22.5 kg to 35.0 kg, and the various weights and each sex were represented in each group. The dogs received a measured amount of Science Diet maintenance dog food daily and water was available. The two groups of dogs were housed separately. The dogs of Group 1 were not given any treatments, whereas those of Group 2 were each given 50 mg/kg of technical (S)-methoprene one time only at the start of the study (Day 0).\nBlood samples were taken periodically by drawing the samples into 10 cc disposable syringes and transferring them to labeled 5 mL heparinized EDTA vacutainers treated with […] of paraoxon solution at a concentration of 1 x 10^-2 M. The blood samples were frozen until ready for analysis. Hair samples were clipped from the dogs on the same days that blood samples were taken, then placed in labeled freezer jars with aluminum foil seals, and frozen.\nTo analyze the dog hair, a known weight (4-8 g) of each dog hair sample was extracted in hexane, the extract evaporated and the residue reconstituted in 2 mL of hexane. One mL of the extract was cleaned by solid-phase extraction using a 3 cc/500 mg silica cartridge. The (S)-methoprene was then eluted from the cartridge with 5% ethyl acetate/hexane. The residue was reconstituted in 1 mL acetonitrile and analyzed by reversed-phase high-pressure liquid chromatography (HPLC) on a C18 column (250 x 4.6 mm, 10-micron diameter) using diode array detection at a wavelength of 264 nm, with a mobile phase of 90:10 methanol:water at 1.5 mUmin and an injection volume of […]. The (S)-methoprene peak eluted at about 5.1 minutes. The concentration of (S)-methoprene was calculated based on a calibration curve generated by concurrently running a series of standards. The limit of quantitation was about 20 ppb.",
  "data": [
    {"molecule": "COC(C)(C)CCC[C@H](C)C/C=C/C(C)=C/C(=O)OC(C)C", "note": "[(S)-Methoprene, 1-isopropyl (E,E)-11-methoxy-3,7,11-trimethyl dodecadi-2,4-enoate]", "values": [
      {"measurement": "Concentration of (S)-Methoprene on Dog Hair", "setting": "Dog #60, day 3", "result": "33,900 ppb"},
      {"measurement": "Concentration of (S)-Methoprene on Dog Hair", "setting": "Dog #60, day 5", "result": "12,500 ppb"},
      {"measurement": "Concentration of (S)-Methoprene on Dog Hair", "setting": "Dog #60, day 7", "result": "2,400 ppb"},
      {"measurement": "Concentration of (S)-Methoprene on Dog Hair", "setting": "Dog #60, day 10", "result": "12,300 ppb"},
      {"measurement": "Concentration of (S)-Methoprene on Dog Hair", "setting": "Dog #60, day 14", "result": "5,300 ppb"},
      {"measurement": "Concentration of (S)-Methoprene on Dog Hair", "setting": "Dog #60, day 17", "result": "3,600 ppb"},
      {"measurement": "Concentration of (S)-Methoprene on Dog Hair", "setting": "Dog #60, day 21", "result": "12,100 ppb"},
      {"measurement": "Concentration of (S)-Methoprene on Dog Hair", "setting": "Dog #60, day 28", "result": "5,200 ppb"},
      {"measurement": "concentration at 17 day", "setting": "Dog #98, day 17", "result": 345, "unit": "ng/g"},
      {"measurement": "concentration at 17 day", "setting": "Dog #528, day 17", "result": 137, "unit": "ng/g"},
      {"measurement": "concentration at 21 day", "setting": "Dog #528, day 21", "result": 31.2, "unit": "ng/g"},
      {"measurement": "concentration at 17 day", "setting": "Dog #529, day 17", "result": 39.7, "unit": "ng/g"},
      {"measurement": "concentration at 21 day", "setting": "Dog #529, day 21", "result": 93.5, "unit": "ng/g"},
      {"measurement": "concentration at 17 day", "setting": "Dog #532, day 17", "result": 331, "unit": "ng/g"},
      {"measurement": "concentration at 17 day", "setting": "Dog #535, day 17", "result": 1090, "unit": "ng/g"},
      {"measurement": "concentration at 1 day", "setting": "random-bred, Dog #60", "result": 6000, "unit": "ng/g"},
      {"measurement": "concentration at 1 day", "setting": "random-bred, Dog #98", "result": 47.4, "unit": "ng/g"},
      {"measurement": "concentration at 3 day", "setting": "random-bred, Dog #98, day 3", "result": 125, "unit": "ng/g"},
      {"measurement": "concentration at 5 day", "setting": "random-bred, Dog #98, day 5", "result": 161, "unit": "ng/g"},
      {"measurement": "concentration at 7 day", "setting": "random-bred, Dog #98, day 7", "result": 126, "unit": "ng/g"},
      {"measurement": "concentration at 10 day", "setting": "random-bred, Dog #98, day 10", "result": 167, "unit": "ng/g"},
      {"measurement": "concentration at 14 day", "setting": "random-bred, Dog #98, day 14", "result": 200, "unit": "ng/g"},
      {"measurement": "concentration at 21 day", "setting": "random-bred, Dog #98, day 21", "result": 231, "unit": "ng/g"},
      {"measurement": "concentration at 28 day", "setting": "random-bred, Dog #98, day 28", "result": 287, "unit": "ng/g"},
      {"measurement": "concentration at 1 day", "setting": "random-bred, Dog #528", "result": 76.6, "unit": "ng/g"},
      {"measurement": "concentration at 3 day", "setting": "random-bred, Dog #528, day 3", "result": 199, "unit": "ng/g"},
      {"measurement": "concentration at 5 day", "setting": "random-bred, Dog #528, day 5", "result": 114, "unit": "ng/g"},
      {"measurement": "concentration at 7 day", "setting": "random-bred, Dog #528, day 7", "result": 150, "unit": "ng/g"},
      {"measurement": "concentration at 10 day", "setting": "random-bred, Dog #528, day 10", "result": 126, "unit": "ng/g"},
      {"measurement": "concentration at 14 day", "setting": "random-bred, Dog #528, day 14", "result": 103, "unit": "ng/g"},
      {"measurement": "concentration at 28 day", "setting": "random-bred, Dog #528, day 28", "result": 47.2, "unit": "ng/g"},
      {"measurement": "concentration at 1 day", "setting": "random-bred, Dog #529", "result": 86.6, "unit": "ng/g"},
      {"measurement": "concentration at 3 day", "setting": "random-bred, Dog #529, day 3", "result": 82.2, "unit": "ng/g"},
      {"measurement": "concentration at 5 day", "setting": "random-bred, Dog #529, day 5", "result": 58.3, "unit": "ng/g"},
      {"measurement": "concentration at 7 day", "setting": "random-bred, Dog #529, day 7", "result": 34.5, "unit": "ng/g"},
      {"measurement": "concentration at 10 day", "setting": "random-bred, Dog #529, day 10", "result": 60.5, "unit": "ng/g"},
      {"measurement": "concentration at 14 day", "setting": "random-bred, Dog #529, day 14", "result": 85.5, "unit": "ng/g"},
      {"measurement": "concentration at 28 day", "setting": "random-bred, Dog #529, day 28", "result": 106, "unit": "ng/g"},
      {"measurement": "concentration at 3 day", "setting": "random-bred, Dog #532, day 3", "result": 62.4, "unit": "ng/g"},
      {"measurement": "concentration at 5 day", "setting": "random-bred, Dog #532, day 5", "result": 98.6, "unit": "ng/g"},
      {"measurement": "concentration at 7 day", "setting": "random-bred, Dog #532, day 7", "result": 117, "unit": "ng/g"},
      {"measurement": "concentration at 10 day", "setting": "random-bred, Dog #532, day 10", "result": 255, "unit": "ng/g"},
      {"measurement": "concentration at 14 day", "setting": "random-bred, Dog #532, day 14", "result": 350, "unit": "ng/g"},
      {"measurement": "concentration at 21 day", "setting": "random-bred, Dog #532, day 21", "result": 342, "unit": "ng/g"},
      {"measurement": "concentration at 28 day", "setting": "random-bred, Dog #532, day 28", "result": 230, "unit": "ng/g"},
      {"measurement": "concentration at 1 day", "setting": "random-bred, Dog #535", "result": 49.3, "unit": "ng/g"},
      {"measurement": "concentration at 3 day", "setting": "random-bred, Dog #535, day 3", "result": 424, "unit": "ng/g"},
      {"measurement": "concentration at 5 day", "setting": "random-bred, Dog #535, day 5", "result": 276, "unit": "ng/g"},
      {"measurement": "concentration at 7 day", "setting": "random-bred, Dog #535, day 7", "result": 294, "unit": "ng/g"},
      {"measurement": "concentration at 10 day", "setting": "random-bred, Dog #535, day 10", "result": 681, "unit": "ng/g"},
      {"measurement": "concentration at 14 day", "setting": "random-bred, Dog #535, day 14", "result": 800, "unit": "ng/g"},
      {"measurement": "concentration at 21 day", "setting": "random-bred, Dog #535, day 21", "result": 675, "unit": "ng/g"},
      {"measurement": "concentration at 28 day", "setting": "random-bred, Dog #535, day 28", "result": 461, "unit": "ng/g"}
    ]}
  ]
}
